Data taken from patent US12617762B2, “Carboxy derivatives with antiinflamatory properties” (Sitryx Therapeutics Limited, priority 2019, dated 2026).
Like-named read-outs stand apart in the source and are kept apart here.

What was measured:
[1] = tested on: IL-1β cytokine output from THP-1s; test: THP-1 AlphaLISA IL-1β cytokine inhibition assay; assay type: cell-based; settings: Homo sapiens
How it was run: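 THP-1 cells differentiated with PMA for 72 h, pre-incubated with compound 30 min, then LPS-primed 24 h and Nigericin-stimulated 1 h (37° C./5% CO2). Supernatant IL-1β measured by AlphaLISA; percentage inhibition normalised to +LPS (high) and −LPS (low) plate controls.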

[2] = tested on: IL-6 cytokine output from THP-1s; test: THP-1 AlphaLISA IL-6 cytokine inhibition assay; assay type: cell-based; settings: Homo sapiens
Protocol: The cytokine inhibition profiles of compounds of formula (I) were determined in a differentiated THP-1 cell assay. All assays were performed in RPMI-1640 growth medium (Gibco), supplemented with 10% fetal bovine serum (FBS; Gibco), 1% penicillin-streptomycin and 1% sodium pyruvate unless specified otherwise. The IL-1β cytokine inhibition assay was run in a background of differentiated THP-1 cells as described below. All reagents described were from Sigma-Aldrich unless specified otherwise. Compounds were prepared as 10 mM DMSO stocks.
THP-1 cells were expanded as a suspension up to 80% confluence in appropriate growth medium. Cells were harvested, suspended, and treated with an appropriate concentration of phorbol 12-myristate 13-acetate (PMA) over a 72 hr period (37° C./5% CO2).
Following 72 hrs of THP-1 cell incubation, cellular medium was removed and replaced with fresh growth media containing 1% of FBS. Working concentrations of compounds were prepared separately in 10% FBS treated growth medium and pre-incubated with the cells for 30 minutes (37° C./5% CO2). Following the 30 minute compound pre-incubation, THP-1s were treated with an appropriate concentration of LPS and the cells were subsequently incubated for a 24 hr period (37° C./5% CO2). An appropriate final concentration of Nigericin was then dispensed into the THP-1 plates and incubated for 1 hour (37° C./5% CO2) before THP-1 supernatants were harvested and collected in separate polypropylene 96-well holding plates.
Reagents from an IL-1β and IL-6 commercial kit (Perkin Elmer) were prepared and run according to the manufacturer's instructions. Subsequently, fluorescence signal detection in a microplate reader was measured (EnVision® Multilabel Reader, Perkin Elmer).
Percentage inhibition was calculated per cytokine by normalising the sample data to the high and low controls used within each plate (+/− LPS respectively).

[3] = tested on: NRF2 (nuclear factor erythroid 2-related factor 2); test: NRF2 +/-GSH activation assay (DiscoverX PathHunter NRF2 translocation kit, U2OS cells); assay type: cell-based; settings: for NRF2 activation +GSH Emax / NRF2 activation −GSH Emax: normalised to DMF high control
How it was run: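 U2OS PathHunter eXpress cells, 24 h post-plating, treated with compound ±GSH (+GSH arm: 30 min compound–GSH pre-incubation, 6 mM working GSH), then 6 h at 37 °C. NRF2 nuclear translocation read by enzyme-fragment-complementation chemiluminescence; % activation normalised to DMF high and untreated low controls.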

[4] = Hepatocyte stability assay, mouse; assay type: in vitro ADME; settings: mouse, hepatocytes; for hepatocyte CLint at 10 μM: Hepatocyte stability Clint; for half-life at 10 μM: Hepatocyte stability T½
How it was run: (§1)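 Cryopreserved hepatocytes (viability >70%), 0.5×10^6 cells/mL in Leibovitz buffer, preincubated 10 min at 37° C, then 10 μM compound (0.1% DMSO) in duplicate; sampled 0-60 min, acetonitrile quench, LC-MS/MS. CLint and half-life from ln % remaining vs time; buffer-only incubation as negative control.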

[5] = Hepatocyte stability assay, human; assay type: in vitro ADME; settings: human, hepatocytes; for hepatocyte CLint at 10 μM: Hepatocyte stability Clint; for half-life at 10 μM: Hepatocyte stability T½
How it was run: as §1

[6] = THP-1, differentiated THP-1 cells, LPS then nigericin
[7] = +GSH, 30 minute compound-GSH pre-incubation, read-out: NRF2 activation +GSH EC50
[8] = −GSH, U2OS PathHunter cells, 6 hours compound treatment, read-out: NRF2 activation −GSH EC50
[9] = THP-1, differentiated THP-1 cells, data from repeated experiments
[10] = differentiated THP-1 cells, LPS then nigericin

Compound	IC50 [1, 6]	IC50 [2, 6]	EC50 [3, 7]	NRF2 activation +GSH Emax ([3]; +GSH)	EC50 [3, 8]	NRF2 activation −GSH Emax ([3]; −GSH)	hepatocyte CLint at 10 μM [4]	half-life at 10 μM [4]	hepatocyte CLint at 10 μM [5]	half-life at 10 μM [5]	IC50 [1, 9]	IC50 [2, 9]	IC50 [2, 10]	IC50 ([1]; THP-1, Table 3, head to head comparison of exo vs endo double bond compounds)
C=C(Cc1noc(CCCCCCCC)n1)C(=O)O [Example 3, 2-((5-octyl-1,2,4-oxadiazol-3-yl)methyl)acrylic acid]	14.6 µM	4.4 µM	6.9 µM	199%	3.7 µM	218%	117 µL/min/1e6 cells	12 min	110 µL/min/1e6 cells	15 min	–	–	–	–
C=C(Cc1nc(CCCCCCC)no1)C(=O)O [Example 6, 2-((3-heptyl-1,2,4-oxadiazol-5-yl)methyl)acrylic acid]	24.7 µM	26 µM	29.1 µM	170%	22.9 µM	190%	185 µL/min/1e6 cells	9 min	38 µL/min/1e6 cells	31 min	–	–	–	–
C=C(Cc1nc(C(C)CCCCCC)no1)C(=O)O (stereo not shown) [Example 8, 2-((3-(octan-2-yl)-1,2,4-oxadiazol-5-yl)methyl)acrylic acid]	16.8 µM	14 µM	28.1 µM	167%	20.9 µM	175%	143 µL/min/1e6 cells	10 min	28 µL/min/1e6 cells	51 min	–	–	–	–
C=C(Cc1nc(C2(c3ccc(Cl)cc3)CC2)no1)C(=O)O [Example 10, 2-((3-(1-(4-chlorophenyl)cyclopropyl)-1,2,4-oxadiazol-5-yl)methyl)acrylic acid]	10 µM	26.2 µM	45.2 µM	53%	36.8 µM	67%	125 µL/min/1e6 cells	8 min	27 µL/min/1e6 cells	47 min	–	–	–	–
C=C(Cc1nc(CCCCCCC(F)(F)C(F)(F)F)no1)C(=O)O [Example 17, 2-((3-(7,7,8,8,8-pentafluorooctyl)-1,2,4-oxadiazol-5-yl)methyl)acrylic acid]	19.3 µM	5.3 µM	8.7 µM	140%	5.1 µM	179%	105 µL/min/1e6 cells	12 min	42 µL/min/1e6 cells	34 min	–	–	–	–
C=C(Cc1nc(Cc2ccc(-c3ccc(Cl)cc3)cc2)no1)C(=O)O [Example 19, 2-((3-((4′-chloro-[1,1′-biphenyl]-4-yl)methyl)-1,2,4-oxadiazol-5-yl)methyl)acrylic acid]	77 µM	3.3 µM	7.4 µM	140%	2.5 µM	206%	> 460 µL/min/1e6 cells	< 3 min	63 µL/min/1e6 cells	20 min	–	–	–	–
C=C(Cc1nc(Cc2ccc(CCCC)cc2)no1)C(=O)O [Example 20, 2-((3-(4-butylbenzyl)-1,2,4-oxadiazol-5-yl)methyl)acrylic acid]	14.7 µM	2.7 µM	3 µM	146%	2.9 µM	206%	427 µL/min/1e6 cells	4 min	70 µL/min/1e6 cells	24 min	–	–	–	–
C=C(Cc1nc(C2(c3ccc(C(F)(F)F)cc3)CC2)no1)C(=O)O [Example 22, 2-((3-(1-(4-(trifluoromethyl)phenyl)cyclopropyl)-1,2,4-oxadiazol-5-yl)methyl)acrylic acid]	10.9 µM	–	60.2 µM	62%	48.7 µM	69%	42 µL/min/1e6 cells	41 min	20 µL/min/1e6 cells	84 min	8.7 µM	43.5 µM	–	–
C=C(Cc1nc(C2(c3cc(Cl)cc(Cl)c3)CC2)no1)C(=O)O [Example 67, 2-((3-(1-(3,5-dichlorophenyl)cyclopropyl)-1,2,4-oxadiazol-5-yl)methyl)acrylic acid]	69.4 µM	4.1 µM	–	–	–	–	92 µL/min/1e6 cells	13 min	70 µL/min/1e6 cells	23 min	–	–	–	–
C=C(Cc1nc(Cc2ccc(OC(F)(F)C(F)F)cc2)no1)C(=O)O [Example 81, 2-((3-(4-(1,1,2,2-tetrafluoroethoxy)benzyl)-1,2,4-oxadiazol-5-yl)methyl)acrylic acid]	22 µM	12.8 µM	–	–	–	–	94 µL/min/1e6 cells	18 min	< 3 µL/min/1e6 cells	> 460 min	–	–	–	–
C=C(Cc1nc(C2(c3ccc(OC(F)(F)C(F)F)cc3)CC2)no1)C(=O)O [Example 82, 2-((3-(1-(4-(1,1,2,2-tetrafluoroethoxy)phenyl)cyclopropyl)-1,2,4-oxadiazol-5-yl)methyl)acrylic acid]	14.5 µM	20.7 µM	–	–	–	–	30 µL/min/1e6 cells	58 min	< 3 µL/min/1e6 cells	> 460 min	–	–	–	–
C=C(Cc1noc(C(F)(F)c2ccc(Cl)cc2)n1)C(=O)O [Example 84, 2-((5-((4-chlorophenyl)difluoromethyl)-1,2,4-oxadiazol-3-yl)methyl)acrylic acid]	39 µM	–	–	–	–	–	83 µL/min/1e6 cells	21 min	14 µL/min/1e6 cells	115 min	–	–	23.1 µM	–
C=C(Cc1nc(C(F)(F)c2ccc(C(F)(F)F)cc2)no1)C(=O)O [Example 92, 2-((3-(difluoro(4-(trifluoromethyl)phenyl)methyl)-1,2,4-oxadiazol-5-yl)methyl)acrylic acid]	6.7 µM	19.9 µM	–	–	–	–	23 µL/min/1e6 cells	84 min	< 3 µL/min/1e6 cells	> 460 min	–	–	–	–
C=C(Cc1nc(CCCCCCCC)c(C)o1)C(=O)O [Example 107, 2-((5-methyl-4-octyloxazol-2-yl)methyl)acrylic acid]	9.5 µM	–	–	–	–	–	> 460 µL/min/1e6 cells	< 3 min	161 µL/min/1e6 cells	8 min	–	–	8.4 µM	–
C=C(Cc1nc(-c2ccc(Cl)cc2)c(CCCC)o1)C(=O)O [Example 109, 2-((5-butyl-4-(4-chlorophenyl)oxazol-2-yl)methyl)acrylic acid]	> 31.6 µM	10.6 µM	–	–	–	–	61 µL/min/1e6 cells	28 min	20 µL/min/1e6 cells	79 min	–	–	–	–
C=C(Cc1nc(C2(c3cc(F)c(Cl)c(F)c3)CC2)no1)C(=O)O [Example 135, 2-((3-(1-(4-chloro-3,5-difluorophenyl)cyclopropyl)-1,2,4-oxadiazol-5-yl)methyl)acrylic acid]	13.2 µM	–	–	–	–	–	159 µL/min/1e6 cells	8 min	31 µL/min/1e6 cells	45 min	–	–	17.9 µM	–
C=C(Cc1nc(C2(c3ccc(C(F)(F)F)c(Cl)c3)CC2)no1)C(=O)O [Example 136, 2-((3-(1-(3-chloro-4-(trifluoromethyl)phenyl)cyclopropyl)-1,2,4-oxadiazol-5-yl)methyl)acrylic acid]	2.9 µM	–	–	–	–	–	79 µL/min/1e6 cells	16 min	44 µL/min/1e6 cells	32 min	–	–	3.9 µM	–
CCCCCCCCc1noc(/C=C(\C)C(=O)O)n1 [Example 166, (E)-2-methyl-3-(3-octyl-1,2,4-oxadiazol-5-yl)acrylic acid]	> 31.6 µM	–	–	–	–	–	204 µL/min/1e6 cells	7 min	260 µL/min/1e6 cells	6 min	–	–	31.5 µM	> 31.6 µM
